# Patent publication US20180228775A1, “METHODS OF TREATING CANCER” (Dana-Farber Cancer Institute, Inc., priority 2014, published 2018)
# What was measured:
# [1] = system: human PBMC; test: Culture of human PBMC with GM-CSF (K562-GM) and PPAR-γ modulators: Treg numbers; assay type: cell-based
# [2] = system: GM-CSF treated human monocytes; test: CCL17 and CCL22 expression by GM-CSF treated human monocytes (ELISA); assay type: cell-based; settings: human monocytes with GM-CSF
# Protocol: CCL17 levels were normalized to the number of monocytes per well.
# FIG. 43: Role of PPAR-g in restraining Treg recruitment and expansion is conserved in GM-CSF treated human monocytes.
# CCL17 levels were measured using ELISA (DY364, R&D Systems).
# In addition, these cultures were treated with DMSO or Rosi.
structure (smiles),measurement,setting,value
"CN(CCOc1ccc(CC2SC(=O)NC2=O)cc1)c1ccccn1 (stereo not shown) [Rosi, rosiglitazone]",Treg number,[1]; non-GM-CSF treated cultures (K562-WT),no effect
O=C(Nc1ccncc1)c1cc([N+](=O)[O-])ccc1Cl [T0070907],Treg number / GM-CSF induced Treg expansion,"[1]; human PBMC with GM-CSF (K562-GM), 10 uM Rosi or T0070907 luM every 48 hours, day 4-6",increase
same,CCL22 expression,[2],increasing
same,CCL17 expression,"[2]; 10 uM Rosi, 5 days, ELISA",increasing
